# Measurements from publication PMC10893060, “Synthesis and Study of the Structure–Activity Relationship of Antiproliferative N-Substituted Isosteviol-Based 1,3-Aminoalcohols” (Pharmaceuticals, 2024).
# Assays:
# HeLa = assay: MTT antiproliferative assay, HeLa; assay type: cell-based; details: Homo sapiens, 72 h, no IC50 calculated when less than 50% inhibition at 10 μM
# From the text: (§1) The antiproliferative activities of the prepared diterpene analogues were studied using an MTT assay on a panel of human adherent cancer lines, including cells from cervical (HeLa), breast (MDA-MB-231, MCF-7), and ovary cancers (A2780), as given in Figure 1 and Table S1 in the Supplementary Materials. A non-malignant fibroblast cell line (NIH/3T3) was also utilised to obtain preliminary information on the cancer selectivity of the tested compounds. Based on the obtained activities, some conclusions could be drawn regarding the structure–activity relationships (SARs). Since neither the key intermediate benzyl ester of hydroxylaldehyde 4 nor the N-Boc protected aminoalcohols (6, 7, 11, 12) or even compound 8 with a free carboxylic function exerted remarkable antiproliferative effects (except for 12 against A2780 ovarian cancer cells), we could conclude that the simultaneous presence of the ester function and the basic secondary amino function were essential for the inhibition of cell growth. […] All active molecules inhibited considerably the proliferation of non-malignant cells, which meant that most currently presented agents were not optimal for further investigations of their anticancer properties.
# (§2) The growth-inhibitory effects of the isosteviol-based 1,3-aminoalcohols were determined by a standard MTT (3-(4,5-dimethylthiazol-2-yl)-2,5-diphenyltetrazolium bromide) assay on a panel containing five cell lines, including Hela (cervical cancer), MDA-MB-231 and MCF-7 (breast cancers), and A2780 ovarian cancer cells. All cell lines were purchased from the European Collection of Cell Cultures (Salisbury, UK). The cells were maintained in a minimal essential medium supplemented with 10% foetal bovine serum, 1% non-essential amino acids, and 1% penicillin–streptomycin at 37 °C in a humidified atmosphere containing 5% CO2. All media and supplements were obtained from Lonza Group Ltd. (Basel, Switzerland). Cancer cells were seeded into 96-well plates (5000 cells/well); after overnight incubation, the test compound was added in two different concentrations (10 µM and 30 µM) and incubated for another 72 h under cell-culturing conditions. In the next step, 20 μL of 5 mg/mL of an MTT solution was added to each well and incubated for a further 4 h. The medium was removed and the precipitated formazan crystals were dissolved in DMSO after 60 min of shaking at 37 °C. As a final step, the absorbance was measured at 545 nm by using a microplate reader. Untreated cells were included as controls. […] Two independent experiments were performed with five wells for each condition. Calculations were performed using the GraphPad Prism 10.0 software (GraphPad Software Inc., San Diego, CA, USA).
# A2780 = assay: MTT antiproliferative assay, A2780; assay type: cell-based; details: Homo sapiens, 72 h, no IC50 calculated when less than 50% inhibition at 10 μM
# From the text: as §1, §2
# MDA-MB-231 = assay: MTT antiproliferative assay, MDA-MB-231; assay type: cell-based; details: Homo sapiens, 72 h, no IC50 calculated when less than 50% inhibition at 10 μM
# From the text: as §1, §2
# MCF-7 = assay: MTT antiproliferative assay, MCF-7; assay type: cell-based; details: Homo sapiens, MCF7, 72 h, no IC50 calculated when less than 50% inhibition at 10 μM
# From the text: as §1, §2
# NIH/3T3 = assay: MTT assay on non-malignant fibroblasts; assay type: cell-based; details: Mus musculus, NIH3T3, 72 h, no IC50 calculated when less than 50% inhibition at 10 μM
# From the text: as §1, §2
# [1] = tested on: breast carcinoma MDA-MB-231; design: method as in PMID 26101532; details: MDA-MB-231, third of three values, order assumed; cited from earlier work
SMILES,IC50 (HeLa) [µM],IC50 (A2780) [µM],IC50 (MDA-MB-231) [µM],IC50 (MCF-7) [µM],IC50 (NIH/3T3) [µM],melting point [°C],IC50 [1] [µM]
"C[C@]12CCC3[C@](CC[C@@H]4[C@](C)(C(=O)O)CCC[C@@]34C)(C1)[C@H](CNCc1ccc(F)cc1)[C@H]2O (stereo partly drawn) [Compound 8, (4R,4aS,6aS,7R,8R,9S,11bS)-7-(((4-Fluorobenzyl)amino)methyl)-8-hydroxy-4,9,11b-trimethyltetradecahydro-6a,9-methanocyclohepta[a]naphthalene-4-carboxylic Acid]",> 10,> 10,> 10,> 10,> 10,149 to 150,
COc1cccc2c1C(=O)c1c(O)c3c(c(O)c1C2=O)C[C@@](O)(C(=O)CO)C[C@@H]3O[C@H]1C[C@H](N)[C@H](O)[C@H](C)O1 [Adriamycin],,,,,,,2.26
"C#CCOC(=O)[C@]1(C)CCC[C@@]2(C)C3CC[C@@]4(C)C[C@]3(CC[C@H]12)[C@H](CNCc1ccc(F)cc1)[C@H]4O (stereo partly drawn) [Compound 14, (4R,4aS,6aS,7R,8R,9S,11bS)-Prop-2-yn-1-yl 7-(((4-fluorobenzyl)amino)methyl)-8-hydroxy-4,9,11b-trimethyltetradecahydro-6a,9-methanocyclohepta[a]naphthalene-4-carboxylate]",2.7,1.36,2.23,1.54,5.92,104 to 105,
"CC[C@@H](NC[C@@H]1[C@@H](O)[C@@]2(C)CCC3[C@]1(CC[C@@H]1[C@](C)(C(=O)OC)CCC[C@@]31C)C2)c1ccccc1 (stereo partly drawn) [Compound 24, (4R,4aS,6aS,7R,8R,9S,11bS)-Methyl 8-hydroxy-4,9,11b-trimethyl-7-((((R)-1-phenylpropyl)amino)methyl)tetradecahydro-6a,9-methanocyclohepta[a]naphthalene-4-carboxylate]",3.04,4.52,4.99,2.37,4.44,,
"C=CC(=O)OCCC(=O)OCCCCOC(=O)[C@]1(C)CCC[C@@]2(C)C3CC[C@@]4(C)C[C@]3(CC[C@H]12)[C@H](CN(Cc1ccc(F)cc1)C(=O)OC(C)(C)C)[C@H]4O (stereo partly drawn) [Compound 12, (4R,4aS,6aS,7R,8R,9S,11bS)-4-((3-(Acryloyloxy)propanoyl)oxy)butyl 7-(((tert-butoxycarbonyl)(4-fluorobenzyl)amino)methyl)-8-hydroxy-4,9,11b-trimethyltetradecahydro-6a,9-methanocyclohepta[a]naphthalene-4-carboxylate]",> 10,4.78,> 10,> 10,> 10,,
"CC[C@@H](NC[C@@H]1[C@@H](O)[C@@]2(C)CCC3[C@]1(CC[C@@H]1[C@](C)(C(=O)OCc4ccccc4)CCC[C@@]31C)C2)c1ccccc1 (stereo partly drawn) [Compound 16, (4R,4aS,6aS,7R,8R,9S,11bS)-Benzyl 8-hydroxy-4,9,11b-trimethyl-7-((((R)-1-phenylpropyl)amino)methyl)tetradecahydro-6a,9-methanocyclohepta[a]naphthalene-4-carboxylate]",3.86,4,4.79,3.48,1.37,,
"C=CC(=O)OCCCCOC(=O)[C@]1(C)CCC[C@@]2(C)C3CC[C@@]4(C)C[C@]3(CC[C@H]12)[C@H](CN(Cc1ccc(F)cc1)C(=O)OC(C)(C)C)[C@H]4O (stereo partly drawn) [Compound 11, (4R,4aS,6aS,7R,8R,9S,11bS)-4-(Acryloyloxy)butyl 7-(((tert-butoxycarbonyl)(4-fluorobenzyl)amino)methyl)-8-hydroxy-4,9,11b-trimethyltetradecahydro-6a,9-methanocyclohepta[a]naphthalene-4-carboxylate]",> 10,> 10,> 10,> 10,> 10,,
"COC(=O)[C@]1(C)CCC[C@@]2(C)C3CC[C@@]4(C)C[C@]3(CC[C@H]12)[C@H](CN[C@@H](C)c1ccc2ccccc2c1)[C@H]4O (stereo partly drawn) [Compound 26, (4R,4aS,6aS,7R,8R,9S,11bS)-Methyl 8-hydroxy-4,9,11b-trimethyl-7-((((S)-1-(naphthalen-2-yl)ethyl)amino)methyl)tetradecahydro-6a,9-methanocyclohepta[a]naphthalene-4-carboxylate]",4.33,4.11,6.07,3.67,3.12,,
